From US10336762B2 (priority 2017, dated 2019)
Like-named read-outs stand apart in the source and are kept apart here.

How the values were obtained:
TNFα = assay: cells; assay type: cell-based, human; conditions: Homo sapiens, Monocyte, LPS-stimulated human monocytes, read-out: EC50 TNF
IRAK4 enzyme = IRAK4 enzyme (Homo sapiens (Human), UniProt Q9NWZ3); assay: biochemical; assay type: biochemical; conditions: IRAK4 enzyme, 500 μM ATP
Chain of IRAK4 enzyme (Q9NWZ3 whole entry): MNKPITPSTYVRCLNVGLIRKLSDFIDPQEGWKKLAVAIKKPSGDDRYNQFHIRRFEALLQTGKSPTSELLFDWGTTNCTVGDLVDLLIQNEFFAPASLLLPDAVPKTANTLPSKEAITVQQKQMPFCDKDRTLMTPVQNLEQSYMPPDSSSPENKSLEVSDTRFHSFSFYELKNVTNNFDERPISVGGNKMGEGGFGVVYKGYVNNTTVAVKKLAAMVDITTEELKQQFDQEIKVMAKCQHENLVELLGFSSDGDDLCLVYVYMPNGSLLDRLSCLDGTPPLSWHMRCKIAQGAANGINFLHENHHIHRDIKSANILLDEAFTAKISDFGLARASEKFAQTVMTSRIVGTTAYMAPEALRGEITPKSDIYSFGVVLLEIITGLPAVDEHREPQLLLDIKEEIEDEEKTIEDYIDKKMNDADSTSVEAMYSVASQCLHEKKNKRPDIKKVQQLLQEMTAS

Row | SMILES | EC50 (TNFα; TNFα content) | IC50 (IRAK4 enzyme; TR-FRET) | EC50 (TNFα; TNFα by TR-FRET) | IC50 (IRAK4 enzyme; TR-FRET (HTRF))
1 | CC(=O)N[C@H]1C[C@H](NC(=O)c2cnc(-c3ccc4cc(C#N)cnn34)cc2NC(C)C)C1 [Example 124, N-((1r,3r)-3-acetamido-cyclobutyl)-6-(3-cyano-pyrrolo[1,2-b]pyridazin-7-yl)-4-(isopropylamino) nicotinamide] | 0.182 µM | 0.003 µM |  | 
2 | CC(C)(O)[C@H](F)CNC(=O)c1cnc(-c2ccc3cc(C#N)cnn23)cc1N[C@H]1C[C@H](CNC(=O)C2(C(F)(F)F)CC2)C1 [Example 829, 6-(3-cyanopyrrolo[1,2-b]pyridazin-7-yl)-N-((R)-2-fluoro-3-hydroxy-3-methylbutyl)-4-(((1r,3R)-3-((1-(trifluoromethyl)cyclopropane-1-carboxamido)methyl)cyclobutyl)amino) nicotinamide] |  | < 0.001 µM | 0.023 µM | 
3 | CCCOc1cncc(Nc2cc(-c3ccc4cc(C#N)cnn34)ncc2C(=O)NC[C@@H](F)C(C)(C)O)c1 [Example 849, (R)-6-(3-cyanopyrrolo[1,2-b]pyridazin-7-yl)-N-(2-fluoro-3-hydroxy-3-methylbutyl)-4-((5-propoxy-pyridin-3-yl)amino) nicotinamide] |  | < 0.001 µM | 0.011 µM | 
4 | CC(C)(O)[C@H](F)CNC(=O)c1cnc(-c2ccc3cc(C#N)cnn23)cc1NCC1CNC1 [Example 905, (R)-4-((azetidin-3-yl-methyl)amino)-6-(3-cyanopyrrolo[1,2-b]pyridazin-7-yl)-N-(2-fluoro-3-hydroxy-3-methylbutyl)nicotinamide] |  | 0.015 µM | > 10 µM | 
5 | CC(C)Nc1cc(-c2ccc3cc(C#N)cnn23)ncc1C(=O)NCc1ccc(=O)[nH]c1 [Example 157, 6-(3-cyanopyrrolo[1,2-b]pyridazin-7-yl)-4-(isopro-pylamino)-N-((6-oxo-1,6-dihydropyridin-3-yl)methyl) nicotinamide] | 0.501 µM | 0.023 µM |  | 
6 | CC(C)(O)[C@H](F)CNC(=O)c1cnc(-c2ccc3cc(C#N)cnn23)cc1Nc1ccc(CN2CCCC2=O)cc1 [Example 200, (R)-6-(3-cyanopyrrolo[1,2-b]pyridazin-7-yl)-N-(2-fluoro-3-hydroxy-3-methylbutyl)-4-((4-((2-oxopyrrolidin-1-yl)methyl)phenyl)amino) nicotinamide] | 0.015 µM | 0.001 µM |  | 
7 | CC(C)(O)[C@H](F)CNC(=O)c1cnc(-c2ccc3cc(C#N)cnn23)cc1NC1C2CC3CC1CC(O)(C3)C2 (stereo partly drawn) [Example 419, 6-(3-cyanopyrrolo[1,2-b]pyridazin-7-yl)-N-((R)-2-fluoro-3-hydroxy-3-methylbutyl)-4-((5-hydroxyadamantan-2-yl)amino)nicotinamide] | 0.127 µM |  |  | 0.003 µM
8 | CC(C)(O)[C@H](F)CNC(=O)c1cnc(-c2ccc3cc(C#N)cnn23)cc1Nc1ccc2cnccc2n1 [Example 821, (R)-4-((1,6-naphthyridin-2-yl)amino)-6-(3-cyano-pyrrolo[1,2-b]pyridazin-7-yl)-N-(2-fluoro-3-hydroxy-3-methylbutyl)nicotinamide] |  | < 0.001 µM | 0.051 µM | 
9 | CC(C)(O)[C@H](F)CNC(=O)c1cnc(-c2ccc3cc(C#N)cnn23)cc1NCC1CCC1 [Example 703, (R)-6-(3-cyano-pyrrolo[1,2-b]pyridazin-7-yl)-4-((cyclobutyl-methyl)amino)-N-(2-fluoro-3-hydroxy-3-methylbutyl)nicotinamide] | 0.045 µM |  |  | < 0.001 µM
10 | CC(C)(O)[C@H](F)CNC(=O)c1cnc(-c2ccc3cc(C#N)cnn23)cc1NCC1CCS(=O)(=O)C1 (stereo partly drawn) [Example 74, 6-(3-cyanopyrrolo[1,2-b]pyridazin-7-yl)-4-(((1,1-dioxidotetrahydrothiophen-3-yl)methyl)amino)-N-((R)-2-fluoro-3-hydroxy-3-methylbutyl) nicotinamide] | 1.1 µM | 0.002 µM |  | 
11 | CC(C)Nc1cc(-c2ccc3cc(C#N)cnn23)ncc1C(=O)NCCC(C)(C)O [Example 41, 6-(3-cyanopyrrolo[1,2-b]pyridazin-7-yl)-N-(3-hydroxy-3-methylbutyl)-4-(isopropylamino) nicotinamide] | 0.078 µM | < 0.001 µM |  | 
12 | CC(C)(O)Cn1cc(Nc2cc(-c3ccc4cc(C#N)cnn34)ncc2C(=O)NC[C@@H](F)C(C)(C)O)cn1 [Example 138, (R)-6-(3-cyanopyrrolo[1,2-b]pyridazin-7-yl)-N-(2-fluoro-3-hydroxy-3-methylbutyl)-4-((1-(2-hydroxy-2-methylpropyl)-1H-pyrazol-4-yl)amino)nicotinamide] | 0.117 µM | 0.001 µM |  | 
13 | CC(C)(O)[C@H](F)CNC(=O)c1cnc(-c2ccc3cc(C#N)cnn23)cc1NC1C2CCC1CNC2 (single isomer, unassigned) [Example 27] | 0.175 µM | 0.002 µM |  | 
14 | CC(C)(O)[C@H](F)CNC(=O)c1cnc(-c2ccc3cc(C#N)cnn23)cc1NC1CCNCC1 [Example 23, (R)-6-(3-cyanopyrrolo[1,2-b]pyridazin-7-yl)-N-(2-fluoro-3-hydroxy-3-methylbutyl)-4-(piperidin-4-ylamino)nicotinamide] | 0.676 µM | 0.003 µM |  | 
15 | CC(C)Oc1cccc(Nc2cc(-c3ccc4cc(C#N)cnn34)ncc2C(=O)NC[C@@H](F)C(C)(C)O)c1 [Example 837, (R)-6-(3-cyanopyrrolo[1,2-b]pyridazin-7-yl)-N-(2-fluoro-3-hydroxy-3-methylbutyl)-4-((3-isopropoxyphenyl)amino)nicotinamide] |  | 0.003 µM | 0.117 µM | 
16 | CC(C)Nc1cc(-c2ccc3cc(C#N)cnn23)ncc1C(=O)NC[C@@H](F)C1(O)CC1 [Example 643, (R)-6-(3-cyanopyrrolo[1,2-b]pyridazin-7-yl)-N-(2-fluoro-2-(1-hydroxycyclo-propyl)ethyl)-4-(isopropyl-amino)nicotinamide] | 0.008 µM |  |  | < 0.001 µM
17 | CC(C)(O)[C@H](F)CNC(=O)c1cnc(-c2ccc3cc(C#N)cnn23)cc1Nc1ccc(N2CC(F)(F)C2)nc1 [Example 682, (R)-6-(3-cyanopyrrolo[1,2-b]pyridazin-7-yl)-4-((6-(3,3-difluoroazetidin-1-yl)pyridin-3-yl)amino)-N-(2-fluoro-3-hydroxy-3-methylbutyl) nicotinamide] | 0.022 µM |  |  | 0.001 µM
18 | COC(=O)NC(C)(C)c1ccc(Nc2cc(-c3ccc4cc(C#N)cnn34)ncc2C(=O)NC[C@@H](F)C(C)(C)O)cc1 [Example 214, (R)-methyl(2-(4-((2-(3-cyanopyrrolo[1,2-b]pyridazin-7-yl)-5-((2-fluoro-3-hydroxy-3-methylbutyl)carbamoyl)pyridin-4-yl)amino)phenyl)propan-2-yl)carbamate] | 0.036 µM | 0.003 µM |  | 
19 | COC[C@@H]1CCN(c2ccc(Nc3cc(-c4ccc5cc(C#N)cnn45)ncc3C(=O)NC[C@@H](F)C(C)(C)O)cn2)C1 [Example 885, 6-(3-cyanopyrrolo[1,2-b]pyridazin-7-yl)-N-((R)-2-fluoro-3-hydroxy-3-methylbutyl)-4-((6-((R)-3-(methoxymethyl)pyrrolidin-1-yl)pyridin-3-yl)amino) nicotinamide] |  | 0.001 µM | 0.07 µM | 
20 | CCOc1cncc(Nc2cc(-c3ccc4cc(C#N)cnn34)ncc2C(=O)NC[C@@H](F)C(C)(C)O)c1 [Example 835, (R)-6-(3-cyanopyrrolo[1,2-b]pyridazin-7-yl)-4-((5-ethoxypyridin-3-yl)amino)-N-(2-fluoro-3-hydroxy-3-methylbutyl)nicotinamide] |  | < 0.001 µM | 0.008 µM | 
21 | CC(C)(O)[C@H](F)CNC(=O)c1cnc(-c2ccc3cc(C#N)cnn23)cc1Nc1ccc2cc[nH]c2c1 [Example 578, (R)-4-((1H-indol-6-yl)amino)-6-(3-cyano-pyrrolo[1,2-b]pyridazin-7-yl)-N-(2-fluoro-3-hydroxy-3-methylbutyl) nicotinamide] | 0.014 µM |  |  | 0.002 µM
22 | CC(C)(O)[C@H](F)CNC(=O)c1cnc(-c2ccc3cc(C#N)cnn23)cc1Nc1ccc(OC2COC2)cc1 [Example 567, (R)-6-(3-cyanopyrrolo[1,2-b]pyridazin-7-yl)-N-(2-fluoro-3-hydroxy-3-methylbutyl)-4-((4-(oxetan-3-yloxy)phenyl)amino)nicotinamide] | 0.05 µM |  |  | < 0.001 µM
23 | C[C@H](NC(=O)c1cnc(-c2ccc3cc(C#N)cnn23)cc1NC12CCC(O)(CC1)CC2)C(=O)N1CC(F)(F)C1 [Example 942, (S)-6-(3-cyanopyrrolo[1,2-b]pyridazin-7-yl)-N-(1-(3,3-difluoroazetidin-1-yl)-1-oxopropan-2-yl)-4-((4-hydroxybicyclo[2.2.2]octan-1-yl)amino) nicotinamide] |  | 0.008 µM | 0.587 µM | 
24 | C=CC(=O)N[C@H]1CC[C@H](NC(=O)c2cnc(-c3ccc4cc(C#N)cnn34)cc2NC2CCCC(O)C2)CC1 (stereo partly drawn) [Example 505, N-((1r,4S)-4-acrylamidocyclohexyl)-6-(3-cyanopyrrolo[1,2-b]pyridazin-7-yl)-4-(((1S,3R)-3-hydroxycyclohexyl)amino)nicotinamide] | 0.139 µM |  |  | 0.001 µM
25 | CC(C)(O)[C@H](F)CNC(=O)c1cnc(-c2ccc3cc(C#N)cnn23)cc1Nc1ccc(CNCC(F)(F)F)cc1 [Example 198, (R)-6-(3-cyanopyrrolo[1,2-b]pyridazin-7-yl)-N-(2-fluoro-3-hydroxy-3-methylbutyl)-4-((4-(((2,2,2-trifluoroethyl)amino)methyl)phenyl)amino)nicotinamide] | 0.016 µM | < 0.001 µM |  | 
26 | CN(C)C1CCC(NC(=O)c2cnc(-c3ccc4cc(C#N)cnn34)cc2N[C@H]2CCC[C@@H](O)C2)CC1 (stereo partly drawn) [Example 366, 6-(3-cyanopyrrolo[1,2-b]pyridazin-7-yl)-N-((1r,4S)-4-(dimethylamino)cyclohexyl)-4-(((1S,3R)-3-hydroxycyclohexyl)amino) nicotinamide] | 0.162 µM | 0.001 µM |  | 
27 | CC(C)(O)[C@H](F)CNC(=O)c1cnc(-c2ccc3cc(C#N)cnn23)cc1NC[C@@H]1COCCN1 [Example 917, 6-(3-cyanopyrrolo[1,2-b]pyridazin-7-yl)-N-((R)-2-fluoro-3-hydroxy-3-methylbutyl)-4-((((R)-morpholin-3-yl)methyl)amino)nicotinamide] |  | 0.001 µM | 0.072 µM | 
